The target in the assay is T1, Solute carrier family 22 member 4 (Homo sapiens, UniProt Q9H015).
T1 sequence (Q9H015 whole entry): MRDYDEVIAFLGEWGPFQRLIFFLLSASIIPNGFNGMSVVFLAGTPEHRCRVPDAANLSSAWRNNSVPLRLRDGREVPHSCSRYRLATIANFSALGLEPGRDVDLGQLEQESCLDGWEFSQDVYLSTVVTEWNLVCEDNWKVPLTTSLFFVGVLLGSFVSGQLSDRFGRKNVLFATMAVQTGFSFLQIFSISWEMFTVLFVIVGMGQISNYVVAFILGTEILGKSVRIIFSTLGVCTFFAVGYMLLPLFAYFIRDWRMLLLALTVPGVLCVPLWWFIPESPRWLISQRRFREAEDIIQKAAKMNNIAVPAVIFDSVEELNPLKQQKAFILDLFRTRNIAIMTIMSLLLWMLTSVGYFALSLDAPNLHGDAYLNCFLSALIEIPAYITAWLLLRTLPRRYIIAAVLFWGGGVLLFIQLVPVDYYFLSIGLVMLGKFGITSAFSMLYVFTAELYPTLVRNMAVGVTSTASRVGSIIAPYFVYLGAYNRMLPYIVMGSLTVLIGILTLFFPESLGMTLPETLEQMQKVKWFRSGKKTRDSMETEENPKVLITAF
Nature of the assay: Substrate uptake by the Organic Cation/Carnitine Transporter 1 (OCTN1, SLC22A4) as assessed by the fluorescent FLIPR membrane potential dye in HEK-293 cells stably transfected with SLC22A4 (PubChem AID: 1794816). It is filed as functional, cell-based, HEK293.

The EC50 is the concentration needed to bring the measured effect to its halfway point. A lower EC50 goes with higher potency in that assay. As to `C[N+](C)(C)[C@@H](Cc1c[nH]c(=S)[nH]1)C(=O)[O-]`, the midpoint of the response, the EC50, lay at 40 µM. This lies in the double-digit micromolar range.

The record behind these values is ChEMBL document CHEMBL5209572, “Membrane potential based assay for SLC22A4 using HEK-293 SLC22A4 OE cells” (2022).
